Tests used:
[1] = Caco-2; cited from earlier work
[2] = system: occludin; assay: RT-qPCR, occludin mRNA expression; format: cell-based, human; conditions: Caco-2 monolayer, 24 h, 2 mg/mL DK–Ca or 2 mg/mL DK + 7.5 mM CaCl2; normalized to GAPDH, 2^-ΔΔCt; n = 3
Procedure: (§1) The expression levels of genes related to calcium transport channels were determined following the method of Li et al.. After 21 days of establishing the Caco-2 monolayer model, the monolayers were treated for 24 h with a complete medium containing 2 mg/mL DK–Ca or 2 mg/mL DK + 7.5 mM CaCl2. The group without an added sample served as the control group. Subsequently, the monolayers were washed thrice with HBSS buffer before cell lysis using 200 μL RNAiso Plus. Total RNA was extracted, and first-strand cDNA synthesis was subsequently performed with the PrimeScript® RT reagent kit as per the kit manufacturer’s instructions. Using cDNA as a template, RT-qPCR was performed with gene-specific primers targeting TRPV6, calbindin-D9k, PMCA1b, occludin, and claudin-2. The standard procedure for PCR amplification was as follows: 95 °C for 30 s, followed by 40 cycles of 95 °C for 5 s, 60 °C for 30 s, and 72 °C for 1 min. Target gene expression level was normalized to GAPDH and calculated using the 2^^(-ΔΔCt) relative quantification method. In experimental groups, GAPDH served as the internal reference gene for normalization. All primer sequences used in this study are detailed in Table S1.

[3] = system: Caco-2 monolayer; assay: Effect of dietary components (vitamin D3, phytic acid) on calcium transport in Caco-2 monolayer; format: cell-based, human; conditions: 120 min, control without dietary component, n = 3
Procedure: Vitamin D3 (0.5 μmol/L, dissolved in 0.1% ethanol) or phytic acid (1.8 mM, with a of phytic acid/calcium molar ratio of 0.24) was added to the AP side to evaluate the effect of dietary components on calcium transport. The group without an added dietary component served as the control group. After 120 min incubation, the BL side solution was collected for calcium transport analysis.

[4] = system: calbindin-D9k; assay: RT-qPCR, calbindin-D9k mRNA expression; format: cell-based, human; conditions: Caco-2 monolayer, 24 h, 2 mg/mL DK–Ca or 2 mg/mL DK + 7.5 mM CaCl2; normalized to GAPDH, 2^-ΔΔCt; n = 3
Procedure: as §1

[5] = system: Caco-2 monolayer; assay: Calcium transport assay in Caco-2 monolayer model; format: cell-based, human; conditions: 120 min
Procedure: Caco-2 cells (passages 15–30) were seeded at 1 × 10^5 cells/mL in Transwell chambers (12 mm, 0.4 μm pores, polycarbonate membrane, 1.12 cm^2 area) to establish a Caco-2 monolayer model. The culture medium (0.5 mL in the apical and 1.5 mL in the basolateral) was refreshed every 48 h (first week), then daily (next two weeks). The integrity of the Caco-2 cell monolayer model was verified by the following multiple indicators: Transepithelial electrical resistance (TEER) was monitored every 48 h using an epithelial voltohmmeter (RE1600, Beijing Jingong Hongtai Technology Co., Ltd., Beijing, China). Alkaline phosphatase (ALP) activity was measured on days 8, 12, 14, 16, and 21 after inoculation utilizing an ALP assay kit, following the manufacturer’s protocol. Transepithelial permeability was evaluated using sodium fluorescein following the method of Qiu et al..
Caco-2 monolayer models with a TEER value exceeding 500 Ω·cm^2 are permitted for calcium transport studies. Following three sequential washes with Hank’s balanced salt solution (HBSS; calcium/magnesium-free, pH 7.4), monolayers were equilibrated at 37 °C for 30 min. Afterward, the Transwell chambers were moved to fresh receiver plates for transport assays.
Concentration-dependent CaCl2 transport assay: 0.5 mL of CaCl2 solution (1.5~10 mM) was added to the apical (AP) side. The basolateral (BL) side contained 1.5 mL prewarmed HBSS. After 120 min incubation at 37 °C and 5% CO2, the BL side solution was collected for calcium transport analysis.
Time-dependent CaCl2 transport assay: The AP side contained 0.5 mL of 7.5 mM CaCl2 solution, and the BL side 1.5 mL prewarmed HBSS. At designated intervals (30~180 min), 1 mL BL side solution was collected and replaced with equal volumes of fresh HBSS buffer to maintain consistency.
Different concentrations of DK solution (0.5~2 mg/mL, 0.5 mL) containing 7.5 mM CaCl2, or 0.5 mL of DK–Ca solution (0.5~2 mg/mL), were added to the AP side. The BL side contained 1.5 mL prewarmed HBSS. The control group contained 7.5 mM CaCl2 alone on the AP side. At designated intervals (30~180 min), 1 mL BL side solution was collected and replaced with equal volumes of fresh HBSS buffer to maintain consistency.
Calcium concentration in the collected sample was measured using a calcium colorimetric assay kit at 575 nm. Transported calcium was calculated as follows:(1) Tn=1.5Cn+1×∑k=1n-1Ck […]

DEEENDQVK–Ca [DK–Ca, complex formed by chemically chelating DK with CaCl2]
calcium dialysis rate relative to CaCO3 [1]: 1.79 times | solubility relative to blank control group (CaCO3) [1]: 1.56 times | occludin mRNA expression compared to the control group [2]: unchanged | reduction of transported calcium by phytic acid compared to the control group ([3]; phytic acid 1.8 mM (phytic acid/calcium molar ratio 0.24) on AP side): 7.83% | increase of transported calcium by vitamin D3 compared to the control group ([3]; vitamin D3 0.5 μmol/L on AP side): 11.3% | calbindin-D9k mRNA expression, upregulation compared to the untreated control group [4]: 2.26 fold | transported calcium ([5]; 2 mg/mL DK–Ca (calcium content 300 μg/mL) on AP side, AP to BL, HBSS pH 7.4, 37 °C, calcium colorimetric kit 575 nm, mean ± SD, n = 3): 74.11 ± 1.25 μg/well | transported calcium, fold higher than that of the CaCl2 control group ([5]; calcium content 300 μg/mL (2 mg/mL peptide sample), AP to BL, 37 °C): 1.83 fold | calcium transport-promoting capacity relative to DK + CaCl2 ([5]; equivalent calcium dose (7.5 mM)): 1.37 times
